In patent publication US12534496B2, “Polymorphic forms of Cyclo (-His-Pro) and methods of use to treat kidney disease” (NovMetaPharma Co., Ltd., priority 2018, dated 2026):
“And” between values parts separate entries of the source, which are not always exact repeats. Identical values can stand only once. “Also recorded” adds a separate entry of the source.

What was measured:
Assay type in all cases: physicochemical
[1] = pKa analysis via potentiometric acid/base titration
Description: pKa analysis was carried out on Pattern 1 via a potentiometric technique which is acid/base titration to determine the pKa point.

[2] = GMP stability study of CHP anhydrate and CHP hydrate under accelerated conditions (total impurities); settings: for Growth of total Impurities: 40 °C/75% RH
Description: CHP anhydrate (Pattern 1) and hydrate (Pattern 2) compounds were manufactured under GMP conditions. A stability study for the CHP anhydrate compound was conducted under ccelerated conditions (40±5° C./75±5% RH) for six months and room temperature conditions (25±5° C./60±5% RH) for 12 months. A further stability study for the CHP hydrate compound was conducted under accelerated conditions (40±5° C./75±5% RH) for 6 months (Table 18).

[3] = pH solubility assessment in buffers at 37 °C; settings: 100 mg solid
Description: CHP patterns 1 and 2 were prepared for pH solubility assessment as follows: • 100 mg of CHP pattern 1 and pattern 2 were each weighed out into 4, 5 mL screw top glass vials; • 100 μL of a selected buffer, pre-heated to 37° C., was added to each vial; • Samples were heated to 37° C. in an incubator shaker for ca. 10 minutes after each volume of buffer and checked for sample dissolution.

[4] = Approximate solubility of CHP Pattern 1 by solvent addition technique
Description: The approximate solubility of CHP in 37 selected solvent systems (Table 13) was estimated by solvent addition technique. The following procedure was used: • Approximately 20 mg of CHP Pattern 1 was weighed out into each of 37vials. • Each solvent/solvent mixture was added to the appropriate vial in 5 volume aliquots (100 μL) until dissolution was observed or a maximum of 2 mL solvent was added. • In between additions, the sample was heated to 40° C. to check for dissolution at elevated temperature. • If 2 mL of solvent was added without dissolution of the material, solubility was calculated to be below 10 mg/mL. • After solvent addition, all 37 vials were placed in a fridge to crash cool between 2-8° C. for ca. 18 hours. • Any solids present were isolated by centrifuge filtration and analyzed by XRPD (where material amount allowed). • Where no solids were produced, vials were uncapped and left to evaporate at ambient temperature. • Any solids present were analyzed by XRPD (where material amount allowed).

[5] = Dynamic vapor sorption (DVS) at 25 °C with post-DVS XRPD
Description: DVS was carried out by placing an approximately 10-20 mg sample into a mesh vapour sorption balance pan and loaded into a DVS Intrinsic Dynamic Vapour Sorption Balance by Surface Measurement Systems. The sample was subjected to a ramping profile from 40 to 90% relative humidity (RH) at 10% increments, maintaining the sample at each step until a stable weight had been achieved (dm/dt 0.004%, minimum step length 30 minutes, maximum step length 500 minutes) at 25° C. After completion of the sorption cycle, the sample was dried using the same procedure to 0% RH and then a second sorption cycle back to 40% RH. Two cycles were performed. The weight change during the sorption/desorption cycles were plotted, allowing for the hygroscopic nature of the sample to be determined. XRPD analysis was then carried out on any solid retained.
Approximately, 10-20 mg of sample was placed into a mesh vapor sorption balance pan and loaded into a DVS Intrinsic dynamic vapor sorption balance by Surface Measurement Systems. The sample was subjected to a ramping profile from 40-90% relative humidity (RH) at 10% increments, maintaining the sample at each step until a stable weight had been achieved (dm/dt 0.004%, minimum step length 30 minutes, maximum step length 500 minutes) at 25° C. After completion of the sorption cycle, the sample was dried using the same procedure to 0% RH and then a second sorption cycle back to 40% RH. Two cycles were performed. The weight change during the sorption/desorption cycles were plotted, allowing for the hygroscopic nature of the sample to be determined. XRPD analysis was then carried out on any solid retained.

[6] = Solution state chemical stability in water/acetone and EtOH/water/MtBE (HPLC purity); settings: 10 mg/ml; for Observation: up to 20 h
Description: Solution state chemical stability of the compound was studied in different solvent systems at different temperatures (Table 4). The solution was held at 50° C. and 80° C., and purity of the solution was tracked. The compound was generally stable for at least 20 hours.

O=C1N[C@@H](Cc2cnc[nH]2)C(=O)N2CCC[C@@H]12 [Pattern 1, Cyclo (-His-Pro)]
pKa [1]: 6.4 and 6.38
Growth of total Impurities ([2]; 0M): 0%
Growth of total Impurities ([2]; 1M): 0%
Growth of total Impurities ([2]; 3M, listed as CHP anhydrate (pattern 1)): 0.27%
Growth of total Impurities ([2]; 6M, listed as CHP anhydrate (pattern 1)): 0.53%
Water content reached by moisture absorption ([2]; during the stability study): 7%
μL for Dissolution at 37° C. ([3]; buffer pH 1): 300 µL
μL for Dissolution at 37° C. ([3]; buffer pH 4): 300 µL
μL for Dissolution at 37° C. ([3]; buffer pH 6.8): 300 µL
μL for Dissolution at 37° C. ([3]; buffer pH 7.2): 300 µL
Approximate Solubility ([4]; THF): ≤ 10000 µg/mL
Approximate Solubility ([4]; acetone): ≤ 10000 µg/mL
Approximate Solubility ([4]; acetonitrile): ≤ 10000 µg/mL
Approximate Solubility ([4]; water): ≥ 200000 µg/mL
Approximate Solubility ([4]; water:acetone [90:10]): ≥ 200000 µg/mL
Post-DVS XRPD form ([5]; after DVS cycles at 25 °C): a new form, assigned as pattern 2; also recorded: re-crystallized to pattern 2
DVS maximum uptake after conversion to Pattern 2 ([5]; between 0 and 90% RH, 25 °C): 0.8 wt %
DVS weight gain (change in mass) ([5]; from 60% RH to 90% RH, 25 °C): 6.3%
Purity (a %) ([6]; (EtOH:H2O = 9:1):MTBE = 1:3 (v/v), 50 °C, 0 h): 99.82%
Purity (a %) ([6]; (EtOH:H2O = 9:1):MTBE = 1:3 (v/v), 50 °C, 2 h): 99.77%
Purity (a %) ([6]; (EtOH:H2O = 9:1):MTBE = 1:3 (v/v), 50 °C, 20 h): 99.82%
Observation ([6]; (EtOH:H2O = 9:1):MTBE = 1:3 (v/v), 50 °C): No change
Purity (a %) ([6]; EtOH:H2O = 9:1 (v/v), 50 °C, 0 h): 99.76%
Purity (a %) ([6]; EtOH:H2O = 9:1 (v/v), 50 °C, 2 h): 99.86%
Purity (a %) ([6]; EtOH:H2O = 9:1 (v/v), 50 °C, 20 h): 99.69%
Observation ([6]; EtOH:H2O = 9:1 (v/v), 50 °C): No change
Purity (a %) ([6]; H2O, 80 °C, 0 h): 99.82%
Purity (a %) ([6]; H2O, 80 °C, 2 h): 99.77%
Purity (a %) ([6]; H2O, 80 °C, 20 h): 99.82%
Observation ([6]; H2O, 80 °C): No change
Purity (a %) ([6]; H2O:Acetone = 0.5:9.5 (v/v), 50 °C, 0 h): 99.77%
Purity (a %) ([6]; H2O:Acetone = 0.5:9.5 (v/v), 50 °C, 2 h): 99.72%
Purity (a %) ([6]; H2O:Acetone = 0.5:9.5 (v/v), 50 °C, 20 h): 99.73%
Observation ([6]; H2O:Acetone = 0.5:9.5 (v/v), 50 °C): No change
